Values of other authors in US20120100040A1, “COMPOSITION FOR S[…]” (Bakteriefritt AS, priority 2009, published 2012).

Settings: rat, orally

CS(C)(=O)=O [dimethylsulfone]
LD50: > 5 g/kg
